Reference: patent US20060019241A1, “Na+ and CI-coupled transport system for endogenous opioid peptides” (priority 2004, published 2006)
Entries after “also recorded” stand apart in the source; their conditions may differ.

What was measured:
Assay type in all cases: cell-based, human
[1] = system: enkephalin/endorphin transport system in SK—N—SH cells; assay: [^3H]deltorphin II uptake in SK—N—SH cells, effect of peptides and amino acids; conditions: for Deltorphin II uptake / effect on [^3H]deltorphin II uptake (in words): [^3H]deltorphin II 25 nM, NaCl, 30 minutes; for Deltorphin II uptake: compound 1 mM; for effect on [^3H]deltorphin II uptake (in words): test substance 1 mM; for IC50: read-out: affinity for the transport system (concentration-dependent inhibition of [^3H]deltorphin II uptake), [^3H]deltorphin II 25 nM
Protocol: (§1) Uptake measurements in control ARPE-19 cells and Tat-ARPE-19 cells. Control ARPE-19 cells and Tat-ARPE-19 cells were maintained in 75-cm^2 culture flasks in Dulbecco's modified Eagle's medium/F12 medium (1:1, volume/volume (v/v)) in the presence of fetal bovine serum (10%) and G418 (100 μg/ml). For uptake measurements, cells were released by trypsin treatment and seeded in 24-well culture plates at an initial density of 0.1×10^6 cells/well. The culture medium was replaced with fresh medium on the second day following the initial seeding and uptake measurements were made on the third day. […] After incubation at 37° C. for a desired time, uptake was terminated by the removal of the medium and washing of the cells with ice-cold uptake buffer. The cells were then dissolved in 1% SDS in 0.2 M NaOH and used for measurement of radioactivity. The uptake buffer in most experiments was 25 mM Hepes/Tris (pH 7.5), containing 140 mM NaCl, 5.4 mM KCl, 1.8 mM CaCl2, 0.8 mM MgSO4 and 5 mM glucose.
Since enkephalins and endorphins are relevant to pain perception and to further provide evidence in support of a role for the transport system in opioidergic neurotransmission, the human neuronal cell line SK—N—SH was tested for expression of the transport system. […] Unless otherwise specified, procedures are as detailed in Example 1.
The concentration of enkephalins and dynorphins was 1 mM.
Finally, the relative affinity of various enkephalins and dynorphins for the transport system in SK—N—SH cells was determined.
To the further characterize the opioid transport of the present invention, various specific peptides that act as positive modulators of the enkephalin/endorphin transport system in the human neuronal cell line SK—N—SH were identified. Unless otherwise specified, procedures are as detailed in Example 1. […] Uptake was measured in the presence of NaCl for 30 minutes. The concentration of the dipeptides was 1 mM.
Uptake was measured in the presence of NaCl for 30 minutes. The concentration of the tripeptides was 1 mM.
Unless otherwise specified, procedures are as described in more detail in Example 1.
The dose-response relationship for the inhibition of the enkephalin/endorphin transport system by L-Lysine and its methyl and ethyl esters is shown in FIG. 15.

[2] = system: deltorphin II transport system in Tat-ARPE-19 cells; assay: Inhibition of [^3H]deltorphin II uptake in Tat-ARPE-19 cells; conditions: [^3H]deltorphin II 50 nM; for [^3H] Deltorphin II uptake / [^3H] Deltorphin II uptake (%) of control: Tat-ARPE-19 cells, 30 minutes, NaCl, inhibitor 1 mM; for [^3H] Deltorphin II uptake (%) of control: control = 100; for competition with deltorphin for the uptake process (in words): Tat-ARPE-19 / RPE cells, compound 1 mM
Text: (§2) Stable transfection of ARPE-19 cells with pcDNA-Tat cDNA. The pGEM2-Tat cDNA construct contained as the insert a 295 basepair (bp) fragment encoding the first exon of HIV-1 Tat gene joined to a 145 bp pET3A transcription terminator. The entire insert (440 bp) was removed from the construct by digestion with PstI and EcoRI and ligated into the multiple cloning region of pcDNA3.1 (−) vector at PstI/EcoRI site so that the insert is downstream of the cytomegalovirus (CMV) promoter. The resultant construct was sequenced to confirm the orientation of the insert. This construct was electroporated into ARPE-19 cells and the stably transfected cell clones were isolated in the presence of Geneticin (G418). To serve as a control, empty pcDNA3.1 vector was electroporated into ARPE-19 cells in an identical manner and the clones harboring the vector were selected by G418 resistance.
as §1
When the influence of Na^+ on the uptake process was investigated, the concentration of NaCl in the uptake buffer was adjusted, as desired, by isoosmotically replacing NaCl with N-methyl-D-glucamine chloride. To assess the influence of Cl^− on the uptake process, the composition of the uptake medium was modified by replacing KCl and CaCl2 with equimolar concentrations of potassium gluconate and calcium gluconate and the concentration of NaCl was adjusted, as desired, by iso-osmotically replacing NaCl with sodium gluconate. Saturation kinetics were analysed by fitting the data to the Michaelis-Menten equation. The Michaelis-Menten constant, Kt, was calculated by non-linear regression analysis and then confirmed by linear regression. Na^+- and Cl^−-activation kinetics were analyzed by fitting the data to the Hill equation and the Hill coefficients for Na^+ and Cl^− (h; the number of Na^+ and Cl^− ions involved in the activation process) and the K0.5 values (the concentration of Na^+ and Cl^−-needed for half-maximal activation) were determined from the analysis. Again, these constants were first calculated by non-linear regression methods and subsequently confirmed by linear regression methods. Experiments were repeated three times in duplicate and the results are given as means±S.E.M.
(§3) Substrate specificity of the deltorphin transport system. […] These peptides consisted of 4-13 amino acids.
Relative affinities of endogenous opioid peptides for the transport system.

[3] = system: deltorphin II transport system in control ARPE-19 cells; assay: Inhibition of [^3H]deltorphin II uptake in control ARPE-19 cells; conditions: [^3H]deltorphin II 50 nM, 30 minutes, NaCl, peptide/antagonist 1 mM; for [^3H] Deltorphin II uptake: control ARPE-19 cells (pcDNA vector alone); for [^3H] Deltorphin II uptake (%) of control: control ARPE-19 cells, control = 100
Text: as §2, §1, §3

## N=C(N)NCCC[C@H](N)C(=O)O [L-Arg, L-arginine]
[1]
  Deltorphin II uptake: 1.46 ± 0.12 pmol/30 min/mg protein
  effect on [^3H]deltorphin II uptake (in words): significant inhibition

## NCCCCCN [1,5-diaminopentane]
[1]
  Deltorphin II uptake: 3.24 ± 0.16 pmol/30 min/mg protein

## YGGFMRGL [[Arg^6, Gly^7, Leu^8[ Met-enkephalin]
[2]
  [^3H] Deltorphin II uptake: 0.09 ± 0.01 pmol/mg protein/30 min
  [^3H] Deltorphin II uptake (%) of control: 1%
[3]
  [^3H] Deltorphin II uptake: 0.04 ± 0.001 pmol/mg protein/30 min
  [^3H] Deltorphin II uptake (%) of control: 4%

## NCCCC[C@@H](N)C(=O)O [D-Lys, D-lysine]
[1]
  Deltorphin II uptake: 2.60 ± 0.31 pmol/30 min/mg protein
  effect on [^3H]deltorphin II uptake (in words): no effect

## C=CCN1CC[C@]23c4c5ccc(O)c4O[C@H]2C(=O)CC[C@@]3(O)[C@H]1C5 [Naloxone]
[3]
  [^3H] Deltorphin II uptake: 1.01 ± 0.00 pmol/mg protein/30 min
  [^3H] Deltorphin II uptake (%) of control: 94%

## NCCCCCCN [Hexamethylenediamine]
[1]
  Deltorphin II uptake: 2.83 ± 0.13 pmol/30 min/mg protein

## YGGFMRF [[Arg^6, Phe^7] Met-enkephalin, Tyr-Gly-Gly-Phe-Met-Arg-Phe]
[2]
  [^3H] Deltorphin II uptake: 0.11 ± 0.01 pmol/mg protein/30 min
  [^3H] Deltorphin II uptake (%) of control: 1%
[3]
  [^3H] Deltorphin II uptake: 0.05 ± 0.001 pmol/mg protein/30 min
  [^3H] Deltorphin II uptake (%) of control: 4%

## YGGFLRR [Dynorphin A (1-7), Tyr-Gly-Gly-Phe-Leu-Arg-Arg]
[2]
  [^3H] Deltorphin II uptake: 0.10 ± 0.02 pmol/mg protein/30 min
  [^3H] Deltorphin II uptake (%) of control: 1%
[3]
  [^3H] Deltorphin II uptake: 0.05 ± 0.002 pmol/mg protein/30 min
  [^3H] Deltorphin II uptake (%) of control: 5%
[1]
  IC50: 4.6 ± 1.1 µM

## NCC(=O)CCC(=O)O [δ-amino-levulinic acid]
[1]
  Deltorphin II uptake: 2.68 ± 0.18 pmol/30 min/mg protein

## Tyr-Gly-Gly-Phe-Met [Met-enkephalin]
[2]
  competition with deltorphin for the uptake process (in words): marked inhibition
  [^3H] Deltorphin II uptake: 0.50 ± 0.01 pmol/mg protein/30 min
  [^3H] Deltorphin II uptake (%) of control: 6%
[3]
  [^3H] Deltorphin II uptake: 0.06 ± 0.004 pmol/mg protein/30 min
  [^3H] Deltorphin II uptake (%) of control: 5%
[1]
  IC50: 10.7 ± 3.1 µM

## CC(=N)NCCCC[C@H](N)C(=O)O [L-NIL]
[1]
  Deltorphin II uptake: 2.40 ± 0.15 pmol/30 min/mg protein

## Tyr-Gly-Gly-Phe-Leu [Leu-enkephalin]
[2]
  competition with deltorphin for the uptake process (in words): marked inhibition
  [^3H] Deltorphin II uptake: 0.15 ± 0.01 pmol/mg protein/30 min
  [^3H] Deltorphin II uptake (%) of control: 2%
[1]
  IC50: 7.8 ± 1.2 µM

## COC(=O)[C@H](CCCCN)NC(C)=O [α-N-acetyl-L-Lys-methyl ester]
[1]
  Deltorphin II uptake: 2.37 ± 0.20 pmol/30 min/mg protein

## Glu-Gly-Phe
[1]
  effect on [^3H]deltorphin II uptake (in words): ability to stimulate the uptake

## N[C@H](Cc1ccc(O)cc1)C(=O)O [D-Tyrosine]
[2]
  [^3H] Deltorphin II uptake: 4.05 ± 0.09 pmol/mg protein/30 min
  [^3H] Deltorphin II uptake (%) of control: 52%
[1]
  effect on [^3H]deltorphin II uptake (in words): significant inhibition

## Gly-Gly-Gly
[2]
  competition with deltorphin for the uptake process (in words): did not compete; also recorded: significant stimulation
  [^3H] Deltorphin II uptake: 9.68 ± 0.39 pmol/mg protein/30 min
  [^3H] Deltorphin II uptake (%) of control: 125%
[1]
  effect on [^3H]deltorphin II uptake (in words): ability to stimulate the uptake

## NCCCCCC(=O)O [6-amino hexanoic acid]
[1]
  Deltorphin II uptake: 2.92 ± 0.18 pmol/30 min/mg protein

## Gly-Gly-Phe
[1]
  effect on [^3H]deltorphin II uptake (in words): ability to stimulate the uptake
